Reference: PMC6273138, “Inhibitory Effects of Aschantin on Cytochrome P450 and Uridine 5′-diphospho-glucuronosyltransferase Enzyme Activities in Human Liver Microsomes” (Molecules, 2016)
pIC50, pKi: −log10 of the molar value.

Legend:
CYP2C9 = CYP2C9 (Homo sapiens, UniProt P11712); test: CYP2C9-catalyzed diclofenac 4′-hydroxylase inhibition in pooled human liver microsomes; conditions: for pIC50: CYP2C9 diclofenac 4′-hydroxylase, 10 µM diclofenac
UGT1A6 = molecular target: T1, UGT1A6 (Homo sapiens, UniProt P19224); test: UGT1A6-catalyzed N-acetylserotonin glucuronidation inhibition in pooled human liver microsomes; assay type: in vitro ADME; conditions: 1 µM N-acetylserotonin
T1 construct: using pooled human liver microsomes incubated with the cocktail of UGT substrates; tissue Corning Life Sciences 452161; host or cells: pooled human liver microsomes
T1 sequence (P19224 27-532): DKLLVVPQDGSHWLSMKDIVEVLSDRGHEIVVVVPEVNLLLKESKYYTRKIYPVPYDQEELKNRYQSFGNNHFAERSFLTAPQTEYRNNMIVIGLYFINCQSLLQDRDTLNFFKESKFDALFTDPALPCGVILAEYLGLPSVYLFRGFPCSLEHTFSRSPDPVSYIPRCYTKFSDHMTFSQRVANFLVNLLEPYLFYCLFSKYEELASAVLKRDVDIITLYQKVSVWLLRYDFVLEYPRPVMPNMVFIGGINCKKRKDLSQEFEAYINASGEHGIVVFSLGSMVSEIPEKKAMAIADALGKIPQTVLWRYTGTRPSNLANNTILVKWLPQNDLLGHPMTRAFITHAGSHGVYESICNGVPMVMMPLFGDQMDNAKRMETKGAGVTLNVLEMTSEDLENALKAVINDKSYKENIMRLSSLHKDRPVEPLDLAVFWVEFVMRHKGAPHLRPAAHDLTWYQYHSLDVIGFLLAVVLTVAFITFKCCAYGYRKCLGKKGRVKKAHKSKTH
Experimental: (§1) The extents of aschantin on UGT1A1, UGT1A3, UGT1A4, UGT1A6, UGT1A9, and UGT2B7 were evaluated by LC-MS/MS, using pooled human liver microsomes incubated with the cocktail of UGT substrates. The method was modified from that of Joo et al..
(§2) The metabolites formed from the six UGT cocktail substrates were simultaneously measured using the LC-MS/MS method. […] The mass spectrometer was equipped with an ESI source and was operated in both positive and negative ion modes. […] Each metabolite was quantified via SRM in the negative ion (chenodeoxycholic acid 24-acyl-β-glucuronide, 567.2 > 391.0; mycophenolic acid glucuronide, 495.2 > 318.9; propofol glucuronide, 353.3 > 177.1) and positive ion (SN-38 glucuronide, 569.0 > 393.0; trifluoperazine glucuronide, 584.2 > 408.1; N-acetylserotonin-β-D-glucuronide, 395.2 > 219.0; naloxone 3-β-D-glucuronide, 504.0 > 310.0; meloxicam, 352.0 > 115.1) modes.

UGT1A4 = molecular target: T2, UGT1A4 (Homo sapiens, UniProt P22310); test: UGT1A4-catalyzed trifluoperazine N-glucuronidation inhibition in pooled human liver microsomes; assay type: in vitro ADME
T2 construct: using pooled human liver microsomes incubated with the cocktail of UGT substrates; tissue Corning Life Sciences 452161; host or cells: pooled human liver microsomes
T2 sequence (P22310 29-534): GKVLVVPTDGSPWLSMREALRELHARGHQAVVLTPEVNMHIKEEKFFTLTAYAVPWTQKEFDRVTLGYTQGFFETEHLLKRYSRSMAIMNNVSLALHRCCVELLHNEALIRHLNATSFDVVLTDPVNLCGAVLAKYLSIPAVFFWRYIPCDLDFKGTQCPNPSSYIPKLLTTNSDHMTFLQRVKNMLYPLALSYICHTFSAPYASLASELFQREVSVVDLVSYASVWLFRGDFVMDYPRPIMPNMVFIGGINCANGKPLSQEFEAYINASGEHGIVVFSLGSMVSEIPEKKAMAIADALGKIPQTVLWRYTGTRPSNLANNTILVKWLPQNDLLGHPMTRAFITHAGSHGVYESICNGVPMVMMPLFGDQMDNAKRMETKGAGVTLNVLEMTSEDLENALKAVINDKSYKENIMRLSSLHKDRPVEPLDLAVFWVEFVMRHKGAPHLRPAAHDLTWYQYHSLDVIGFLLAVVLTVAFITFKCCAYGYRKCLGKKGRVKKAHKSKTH
Experimental: as §1, §2

CYP2C19 = CYP2C19 (Homo sapiens, UniProt P33261); test: Mechanism-based (time- and concentration-dependent) inactivation of CYP2C19 in human liver microsomes; assay type: in vitro ADME; conditions: CYP2C19-mediated [S]-mephenytoin 4′-hydroxylation
Experimental: The microsomes (1 mg/mL) were pre-incubated with various concentrations of aschantin in 50 mM potassium phosphate buffer (pH 7.4) in the presence of NADPH. Aliquots (10 µL) of the incubated mixtures were withdrawn at 5, 10, 15, and 20 min after incubation commenced and added to other tubes containing the CYP substrates (2 µM amodiaquine for CYP2C8, 10 µM diclofenac for CYP2C9, 100 µM [S]-mephenytoin for CYP2C19, or 2 µM midazolam for CYP3A4), 1 mM NADPH, 50 mM potassium phosphate buffer (pH 7.4), and 10 mM MgCl2, in 90 µL reaction mixtures. […] Aliquots (5 µL) of the diluted supernatants were analyzed by LC-MS/MS, as described above.

UGT1A1 = molecular target: T3, UGT1A1 (Homo sapiens, UniProt P22309); test: UGT1A1-catalyzed SN-38 glucuronidation inhibition in pooled human liver microsomes; assay type: in vitro ADME; conditions: 0.5 µM SN-38, pooled human liver microsomes
T3 construct: using pooled human liver microsomes incubated with the cocktail of UGT substrates; tissue Corning Life Sciences 452161; host or cells: pooled human liver microsomes
T3 sequence (P22309 26-533): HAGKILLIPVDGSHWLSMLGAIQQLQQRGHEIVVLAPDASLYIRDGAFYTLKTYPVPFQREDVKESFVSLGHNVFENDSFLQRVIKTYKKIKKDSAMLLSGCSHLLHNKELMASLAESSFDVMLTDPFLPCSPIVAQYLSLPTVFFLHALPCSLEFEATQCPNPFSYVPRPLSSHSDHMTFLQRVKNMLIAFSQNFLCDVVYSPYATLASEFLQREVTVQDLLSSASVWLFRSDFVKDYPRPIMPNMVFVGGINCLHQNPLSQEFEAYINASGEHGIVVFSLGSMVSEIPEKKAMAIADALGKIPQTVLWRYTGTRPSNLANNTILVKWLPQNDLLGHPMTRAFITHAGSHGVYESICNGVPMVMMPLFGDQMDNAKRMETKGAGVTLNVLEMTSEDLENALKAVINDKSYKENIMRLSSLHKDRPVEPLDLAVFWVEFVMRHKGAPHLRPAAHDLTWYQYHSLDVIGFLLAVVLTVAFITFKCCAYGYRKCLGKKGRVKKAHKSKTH
Experimental: as §1, §2

CYP2C9, sequence (P11712 whole entry): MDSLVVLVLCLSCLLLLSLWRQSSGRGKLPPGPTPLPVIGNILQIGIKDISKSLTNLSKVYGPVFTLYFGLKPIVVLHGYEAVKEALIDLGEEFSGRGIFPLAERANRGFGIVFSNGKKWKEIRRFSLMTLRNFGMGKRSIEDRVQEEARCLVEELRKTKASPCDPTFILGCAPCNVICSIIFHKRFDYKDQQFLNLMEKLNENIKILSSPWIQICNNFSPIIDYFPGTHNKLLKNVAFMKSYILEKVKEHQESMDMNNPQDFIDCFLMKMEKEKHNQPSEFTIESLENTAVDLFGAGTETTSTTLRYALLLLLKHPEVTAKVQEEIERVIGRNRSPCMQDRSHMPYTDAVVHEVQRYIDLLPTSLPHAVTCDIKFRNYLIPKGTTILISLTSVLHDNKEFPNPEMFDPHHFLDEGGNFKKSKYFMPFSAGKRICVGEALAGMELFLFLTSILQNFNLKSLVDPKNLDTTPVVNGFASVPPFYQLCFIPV
CYP2C19, sequence (P33261 whole entry): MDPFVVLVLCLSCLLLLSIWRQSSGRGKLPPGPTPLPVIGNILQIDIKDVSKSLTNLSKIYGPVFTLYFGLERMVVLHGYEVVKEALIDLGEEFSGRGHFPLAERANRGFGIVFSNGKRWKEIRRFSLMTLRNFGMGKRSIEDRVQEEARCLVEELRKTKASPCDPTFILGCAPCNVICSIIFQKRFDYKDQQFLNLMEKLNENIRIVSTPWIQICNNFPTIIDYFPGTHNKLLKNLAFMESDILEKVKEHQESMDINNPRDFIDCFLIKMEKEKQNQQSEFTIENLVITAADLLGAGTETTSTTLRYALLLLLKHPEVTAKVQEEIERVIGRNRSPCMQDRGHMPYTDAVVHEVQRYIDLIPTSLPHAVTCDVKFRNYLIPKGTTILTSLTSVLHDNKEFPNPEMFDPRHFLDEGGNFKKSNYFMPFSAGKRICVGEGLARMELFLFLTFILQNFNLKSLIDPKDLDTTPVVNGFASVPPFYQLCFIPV

COc1cc([C@H]2OC[C@H]3[C@@H]2CO[C@@H]3c2ccc3c(c2)OCO3)cc(OC)c1OC [Aschantin]
pIC50 (CYP2C9; IC50 No Pre-incubation, pooled human liver microsomes, no pre-incubation): 4.39 | pIC50 (CYP2C9; IC50 With Pre-incubation, 30 min pre-incubation with microsomes and NADPH): 4.85 | IC50 shift at 0.5 h (CYP2C9; human, pooled human liver microsomes, pH 7.4, probe diclofenac (10 µM), 4′-hydroxylation): > 2.5 | pIC50 (UGT1A6): 3.84 | pIC50 (UGT1A4; UGT1A4-catalyzed trifluoperazine N-glucuronidation, 0.5 µM trifluoperazine, pooled human liver microsomes): < 3.70 | inhibition of UGT1A4-catalyzed trifluoperazine N-glucuronidation (UGT1A4; aschantin at 200 µM, human liver microsomes): not inhibited | pKi (CYP2C19; read-out: Ki (apparent)): 5.24 | kinact (CYP2C19; pH 7.4, probe [S]-mephenytoin (100 µM)): 0.0008 s⁻¹ | pIC50 (UGT1A1): 3.88
